Data reported in patent US12458630B2, “Combination therapy for cancer” (The Regents of the University of California, priority 2020, dated 2025).
Entries after “also recorded” stand apart in the source; their conditions may differ.

Experiments:
[1] = test system: 1305 primary human PDAC cells; assay: Cell viability assay (CCK-8); format: cell-based; conditions: IKKα^low 1305 cells, 3 days
Experimental: (§1) In some embodiments, cells were plated in 96-well plates coated with or without ECM at a density of 3000 cells (MIA PaCa-2, 1444, 1305, COLO 357/FG) or 1500 cells (KC6141) per well and incubated overnight prior to treatment. EIPA (10.5 μM), IPI549 (600 nM), MBQ-167 (500 nM), MRT68921 (600 nM) or erlotinib (2 μM, Sigma), ML385 (10 μM, Sigma), HCQ (10 μM or 80 μM) or their combinations were added to the wells for 24, 72 or 96 hrs. Next, 10 μL of CCK-8 was added to each well. The optical density was read at 450 nm using a microplate reader (FilterMax F5, Molecular Devices, USA) at day 0, 1, 2, 3, and 4. For glutamine-deprivation assays, cells in 96-well plates were rinsed briefly in PBS and incubated in the 0.2 mM glutamine. Glutamine-free DMEM medium was supplemented with 0.2 mM glutamine in the presence of 10% dialyzed FBS and 25 mM HEPES. For glucose-deprivation assays, cells in 96-well plates were rinsed briefly in PBS and incubated in the 0.5 mM glucose. Glucose-free DMEM medium was supplemented with 0.5 mM glucose in the presence of 10% dialyzed FBS and 25 mM HEPES. For some conditions, the medium was supplemented with a final concentration of 2% BSA (Fraction V, fatty-acid-, nuclease and protease-free, Calbiochem). For all experiments, media were replaced every 24 hrs. Viable cell counts were obtained using CCK-8 assay described as above.

[2] = test system: 1444 primary human PDAC cells; assay: Cell viability assay (CCK-8); format: cell-based
Experimental: as §1

[3] = test system: parental and IKKα KO MIA PaCa-2 tumors; assay: Heterotopic s.c. xenografts in nude mice; format: in vivo, mouse
Experimental: To evaluate the effects of MP on tumor growth in the autochthonous model, Kras^G12D;Ikkα^Δpan mice, at 4 weeks of age, were treated with vehicle or 10 mg/kg EIPA (Sigma) by intraperitoneal injection every other day for 1 month. After that, surgically removed pancreata were weighed and used for further analysis. To evaluate the effects of MP on heterotopic xenografts, female homozygous BALB/c Nu/Nu nude mice were injected subcutaneously (s.c.) in both flanks at 7 weeks of age with 10^6 parental and IKKα KO MIA PaCa-2 cells mixed at a 1:1 dilution with BD Matrigel (BD Biosciences) in a total volume of 100 μl. Mice were treated with EIPA (7.5 mg/kg) for 15 days when tumors attained an average volume of 50-100 mm^3. As a control, animals treated with vehicle (DMSO in PBS) were used. Volumes (1/2×(width^2×length)) of s.c. tumors were calculated on the basis of measurements using digital calipers after 15 days of treatment. […] Tumor volumes were calculated as above.
In some embodiments, to evaluate the effects of MP on tumor growth or survival in the autochthonous model, Kras^G12D;Ikkα^ΔPEC mice, at 4 weeks of age, were treated with vehicle or 10 mg/kg EIPA (Sigma) by i.p. injection every other day for 1 month. […] Volumes (1/2×(width^2×length)) of s.c. tumors were calculated on the basis of measurements using digital calipers after 15 days of treatment. […] Tumor volumes were calculated as above.

[4] = test system: Kras^G12D;Ikkα^ΔPEC mice; assay: Autochthonous PDAC model; format: in vivo, mouse
Experimental: To evaluate the effects of MP on tumor growth in the autochthonous model, Kras^G12D;Ikkα^Δpan mice, at 4 weeks of age, were treated with vehicle or 10 mg/kg EIPA (Sigma) by intraperitoneal injection every other day for 1 month. After that, surgically removed pancreata were weighed and used for further analysis. To evaluate the effects of MP on heterotopic xenografts, female homozygous BALB/c Nu/Nu nude mice were injected subcutaneously (s.c.) in both flanks at 7 weeks of age with 10^6 parental and IKKα KO MIA PaCa-2 cells mixed at a 1:1 dilution with BD Matrigel (BD Biosciences) in a total volume of 100 μl. Mice were treated with EIPA (7.5 mg/kg) for 15 days when tumors attained an average volume of 50-100 mm^3. As a control, animals treated with vehicle (DMSO in PBS) were used. Volumes (1/2×(width^2×length)) of s.c. tumors were calculated on the basis of measurements using digital calipers after 15 days of treatment. To evaluate the combination effects of autophagy and MP inhibition on tumor growth, C57BL/6 mice were injected s.c. at 7 weeks of age with 10^7 KC6141 cells in a total volume of 100 μl. Mice were treated with vehicle, EIPA (7.5 mg/kg), MRT68921 (10 mg/kg, MCE), or EIPA and MRT68921 for 21 days when tumors attained an average volume of 100 mm^3. Tumor volumes were calculated as above.
In some embodiments, to evaluate the effects of MP on tumor growth or survival in the autochthonous model, Kras^G12D;Ikkα^ΔPEC mice, at 4 weeks of age, were treated with vehicle or 10 mg/kg EIPA (Sigma) by i.p. injection every other day for 1 month. After that, surgically removed pancreata were weighed and used for further analysis and other mice were continued to maintain for survival. To evaluate the effects of MP on heterotopic xenografts, female homozygous BALB/c Nu/Nu nude mice were injected subcutaneously (s.c.) in both flanks at 7 weeks of age with 10^6 parental and IKKα^Δ MIA PaCa-2 cells or 1334 and 1444 cells mixed at a 1:1 dilution with BD Matrigel (BD Biosciences) in a total volume of 100 μl. Mice were treated with vehicle (DMSO in PBS), EIPA (7.5 mg/kg), MRT68921 (10 mg/kg) or MRT68921 and EIPA for 15 days when tumors attained an average volume of 50-100 mm^3. Volumes (1/2×(width^2×length)) of s.c. tumors were calculated on the basis of measurements using digital calipers after 15 days of treatment. To evaluate the combination effects of autophagy and MP inhibition on tumor growth, C57BL/6 mice were injected s.c. at 7 weeks of age with 10^6 parental, Ikkα KD, Nhe1 KD or Ikkα+Nhe1 DKD KC6141 cells in a total volume of 100 μl. Mice were treated with or without vehicle, EIPA (7.5 mg/kg), MRT68921 (10 mg/kg), or EIPA and MRT68921 for 21 days when tumors attained an average volume of 50-100 mm^3. Tumor volumes were calculated as above.
Cell imaging. Immunostaining was performed as described^44. Cells were cultured on coverslips and fixed in 4% PFA for 10 min at room temperature. After washing twice in PBS, cells were incubated in PBS containing 10% FBS to block nonspecific sites of antibody adsorption. The cells were then incubated with the appropriate primary antibodies (diluted 1:100) and secondary antibodies (diluted 1:500) in PBS containing 10% FBS with or without 0.1% saponin. For cell macropinosome visualization, 24 hrs after seeding, the cells were serum starved for 18 hrs. Macropinosomes were marked using a high-molecular-mass (70 KD) TMR-Dextran (Invitrogen)-uptake assay, wherein TMR-DEX was added to serum-free medium at a final concentration of 1 mg/ml for 30 min at 37° C. At the end of the incubation period, the cells were rinsed five times in cold PBS and immediately fixed in 4% PFA. For tissue macropinosome visualization^45, fresh pancreata were cut into pieces with an approximate 5-mm cuboidal shape. A tissue section was placed in a 24-well plate and injected 150 μL of 10 mg/ml TMR-DEX solution directly into the tissue piece. Another 250 μL of diluted TMR-DEX solution were added to the well to immerse the tissue section. […]

[5] = 10 mg/kg EIPA for 1 month vs vehicle

In the case of `CCN(c1nc(N)c(C(=O)N=C(N)N)nc1Cl)C(C)C` [EIPA, 5-(N-ethyl-N-isopropyl) amiloride], the “sensitivity to single agent (cell viability)” value [1] is reported as “very sensitive”, the “sensitivity of IKKα^Δ and ATG7^Δ cells to EIPA (CCK-8)” value ([2]; IKKα^Δ / ATG7^Δ 1444 cells (functional TP53)) is reported as “highly sensitive” and the “cell viability (total viable cells relative to day 0)” value ([2]; WT, IKKα^Δ and ATG7^Δ 1444 cells, complete medium, EIPA 10.5 μM, days 0-4) is reported as “suppression of cell viability”. The “growth of IKKα-deficient tumors / their EIPA sensitivity vs parental” value ([3]; IKKα KO (IKKα^Δ) MIA PaCa-2 tumors, EIPA 7.5 mg/kg for 15 days) was “strongly inhibited; also recorded: more EIPA sensitive”, the tumor size ([3]; parental and IKKα KO MIA PaCa-2 tumors, EIPA 7.5 mg/kg for 15 days vs vehicle) was “reduced tumor size in both groups; also recorded: significantly suppressed” and the “residual cancer tissue (histological analysis)” value ([4]; 10 mg/kg EIPA for 1 month) was “very little residual cancer tissue; also recorded: little residual cancer tissue”. For the same compound, the “IHC: acinar cell loss (amylase up, CK19 and SOX9 down)” value [4, 5] was “prevented acinar cell loss”, the “MP in TMR-DEX injected pancreata” value [4, 5] was “decreased MP” and the “histology (H&E): ADM, advanced PanIN formation, normal parenchyma” value [4, 5] was “inhibited acinar-to-ductal metaplasia (ADM) and advanced pancreatic intraepithelial neoplasia (PanIN) formation, and preserved the normal pancreatic parenchyma”. For the same compound, the “pancreatic weight (a measure of tumor growth)” value ([4]; 10 mg/kg EIPA i.p. every other day for 1 month, from 1 month of age, vs vehicle) was “markedly reduced; also recorded: significantly reduced” and the “survival (Kaplan-Meier)” value ([4]; 10 mg/kg EIPA vs vehicle, n=12) was “substantially extended; also recorded: enhanced the percent survival rate”.
